Legend:
[1] = system: PC-3; experiment: Cytotoxicity against human PC3 cells expressing […] integrin assessed as cell survival after 72 hrs by SRB assay; assay type: functional, cell-based; details: PC-3, 72 h
[2] = system: A2780; experiment: Cytotoxicity against human A2780 cells overexpressing […] integrin assessed as cell survival after 72 hrs by SRB assay; assay type: functional, cell-based; details: A2780, 72 h
[3] = target: T1, Integrin alpha-V/beta-3 (Homo sapiens, UniProt P05106+P06756); experiment: Displacement of [125I]echistatin from integrin […] after 3 hrs by gamma counter; assay type: protein-complex assay
T1 sequence (P05106 27-788 limits assumed): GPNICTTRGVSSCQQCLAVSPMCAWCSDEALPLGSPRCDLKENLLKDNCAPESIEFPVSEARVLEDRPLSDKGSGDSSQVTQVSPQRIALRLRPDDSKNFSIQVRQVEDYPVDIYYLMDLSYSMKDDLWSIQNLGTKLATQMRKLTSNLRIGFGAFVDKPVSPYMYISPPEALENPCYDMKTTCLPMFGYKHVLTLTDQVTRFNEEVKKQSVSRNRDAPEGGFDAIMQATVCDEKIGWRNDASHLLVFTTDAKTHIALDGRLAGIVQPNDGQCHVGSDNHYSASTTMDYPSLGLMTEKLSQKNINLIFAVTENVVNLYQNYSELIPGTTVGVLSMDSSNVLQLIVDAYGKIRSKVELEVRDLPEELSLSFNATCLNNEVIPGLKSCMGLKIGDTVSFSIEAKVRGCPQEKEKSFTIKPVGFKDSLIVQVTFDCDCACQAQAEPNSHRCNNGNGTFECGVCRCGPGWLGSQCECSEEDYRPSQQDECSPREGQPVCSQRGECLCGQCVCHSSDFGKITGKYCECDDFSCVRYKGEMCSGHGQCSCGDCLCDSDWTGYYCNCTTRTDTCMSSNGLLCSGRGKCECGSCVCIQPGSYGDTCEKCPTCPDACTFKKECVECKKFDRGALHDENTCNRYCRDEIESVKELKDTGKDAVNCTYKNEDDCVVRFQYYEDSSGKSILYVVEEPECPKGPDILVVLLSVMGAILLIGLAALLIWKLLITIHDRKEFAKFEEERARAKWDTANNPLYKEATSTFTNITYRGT
T1 sequence (P06756 31-889 limits assumed): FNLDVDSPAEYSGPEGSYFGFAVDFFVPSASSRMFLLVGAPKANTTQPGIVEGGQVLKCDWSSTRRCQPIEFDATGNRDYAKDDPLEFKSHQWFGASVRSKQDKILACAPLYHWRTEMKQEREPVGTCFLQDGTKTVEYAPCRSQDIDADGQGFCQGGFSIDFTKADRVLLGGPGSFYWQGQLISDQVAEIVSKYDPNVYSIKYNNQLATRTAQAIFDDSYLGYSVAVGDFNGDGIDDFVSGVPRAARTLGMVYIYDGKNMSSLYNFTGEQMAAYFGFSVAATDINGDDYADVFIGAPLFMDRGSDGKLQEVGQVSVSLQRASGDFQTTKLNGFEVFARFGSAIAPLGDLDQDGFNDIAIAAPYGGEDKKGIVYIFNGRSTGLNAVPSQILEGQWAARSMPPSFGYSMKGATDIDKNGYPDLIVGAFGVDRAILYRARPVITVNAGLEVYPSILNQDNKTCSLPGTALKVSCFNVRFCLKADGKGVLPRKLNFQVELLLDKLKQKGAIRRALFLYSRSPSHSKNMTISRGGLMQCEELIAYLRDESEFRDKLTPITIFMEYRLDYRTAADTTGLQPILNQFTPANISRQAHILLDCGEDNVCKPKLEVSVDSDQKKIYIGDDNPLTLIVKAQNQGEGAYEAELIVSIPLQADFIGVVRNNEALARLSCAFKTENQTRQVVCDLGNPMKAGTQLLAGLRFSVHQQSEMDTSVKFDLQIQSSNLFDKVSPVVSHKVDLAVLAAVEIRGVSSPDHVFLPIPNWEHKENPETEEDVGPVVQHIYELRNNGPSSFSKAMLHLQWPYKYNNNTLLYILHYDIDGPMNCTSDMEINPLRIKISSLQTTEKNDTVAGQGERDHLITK
T1 sequence (P06756 891-1048 limits assumed): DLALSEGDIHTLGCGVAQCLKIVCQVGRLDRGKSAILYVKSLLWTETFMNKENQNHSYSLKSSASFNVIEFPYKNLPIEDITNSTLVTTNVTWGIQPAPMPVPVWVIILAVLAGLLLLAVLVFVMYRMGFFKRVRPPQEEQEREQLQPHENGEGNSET

[4] = target: Integrin alpha-V/beta-5 (Homo sapiens, UniProt P06756+P18084); experiment: Displacement of [125I]echistatin from integrin […] after 3 hrs by gamma counter; assay type: protein-complex assay
Chain of Integrin alpha-V/beta-5 (P06756 31-889 limits assumed): as the sequence (P06756 31-889 limits assumed) above
Chain of Integrin alpha-V/beta-5 (P06756 891-1048 limits assumed): as the sequence (P06756 891-1048 limits assumed) above
Chain of Integrin alpha-V/beta-5 (P18084 24-799 limits assumed): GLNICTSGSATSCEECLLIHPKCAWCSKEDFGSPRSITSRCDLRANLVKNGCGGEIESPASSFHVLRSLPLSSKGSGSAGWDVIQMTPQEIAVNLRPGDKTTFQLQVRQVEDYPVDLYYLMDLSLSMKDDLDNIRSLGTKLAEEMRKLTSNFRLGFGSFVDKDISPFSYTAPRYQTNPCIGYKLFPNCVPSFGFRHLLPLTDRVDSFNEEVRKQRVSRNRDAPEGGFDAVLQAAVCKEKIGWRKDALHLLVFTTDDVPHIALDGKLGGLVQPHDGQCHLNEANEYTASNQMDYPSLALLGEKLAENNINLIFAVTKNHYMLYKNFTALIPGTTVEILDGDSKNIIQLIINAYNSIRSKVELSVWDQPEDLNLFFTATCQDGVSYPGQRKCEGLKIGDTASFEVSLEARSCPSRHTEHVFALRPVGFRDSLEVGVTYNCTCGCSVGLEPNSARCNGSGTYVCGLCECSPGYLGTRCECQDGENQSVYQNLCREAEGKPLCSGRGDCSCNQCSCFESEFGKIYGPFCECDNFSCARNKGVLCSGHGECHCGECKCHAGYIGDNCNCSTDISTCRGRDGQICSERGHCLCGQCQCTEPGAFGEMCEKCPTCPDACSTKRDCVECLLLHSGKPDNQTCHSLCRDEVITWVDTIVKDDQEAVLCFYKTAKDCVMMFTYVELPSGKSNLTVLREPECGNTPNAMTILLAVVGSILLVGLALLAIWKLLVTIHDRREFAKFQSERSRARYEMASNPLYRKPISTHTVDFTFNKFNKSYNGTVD

[5] = target: T1, Integrin alpha-V/beta-3; experiment: Inhibition of vitronectin binding to human alphaVbeta3 integrin over expressed in A2780 cells; assay type: cell-based
[6] = target: T1, Integrin alpha-V/beta-3; experiment: Inhibition of vitronectin binding to human alphaVbeta3 integrin expressed in PC3 cells; assay type: cell-based, PC-3
[7] = Half life in rat plasma at 5 uM after 24 hrs by HPLC analysis; assay type: ADME, cell-free
[8] = system: Mus musculus; experiment: Toxicity in CD1 nude mouse xenografted with human PC3 cells assessed as body weight loss at 60 mg/10 mL/kg, ip q4d x 4 schedule administered on day 3 of tumor implantation measured after 31 days post tumor implantation; assay type: organism-based, PC-3; details: in vivo, 744 h
[9] = system: Mus musculus; experiment: Toxicity in CD1 nude mouse xenografted with human PC3 cells assessed as mortality at 60 mg/10 mL/kg, ip q4d x 4 schedule administered on day 3 of tumor implantation measured after 31 days post tumor implantation; assay type: organism-based, PC-3; details: in vivo, 744 h
[10] = system: PC-3; experiment: Antimetastatic activity against human PC3 cells xenografted in CD1 nude mouse assessed as area of metastases at 60 mg/10 mL/kg, ip q4d x 4 schedule administered on day 3 of tumor implantation measured after 31 days post tumor implantation; assay type: functional
[11] = system: PC-3; experiment: Antimetastatic activity against human PC3 cells xenografted in CD1 nude mouse assessed as increase in life span at 60 mg/10 mL/kg, ip q4d x 4 schedule administered on day 3 of tumor implantation measured after 31 days post tumor implantation; assay type: functional
[12] = system: PC-3; experiment: Antimetastatic activity against human PC3 cells xenografted in CD1 nude mouse assessed as median survival time at 60 mg/10 mL/kg, ip q4d x 4 schedule administered on day 3 of tumor implantation measured after 31 days post tumor implantation; assay type: functional
[13] = system: Mus musculus; experiment: Toxicity in CD1 nude mouse xenografted with human A498 cells assessed as body weight loss at 55 mg/10 mL/kg, ip q4d x 8 schedule administered on day 3 of tumor implantation measured after 10 days; assay type: organism-based; details: in vivo, 240 h
[14] = system: Mus musculus; experiment: Toxicity in CD1 nude mouse xenografted with human A498 cells assessed as mortality at 55 mg/10 mL/kg, ip q4d x 8 schedule administered on day 3 of tumor implantation measured after 10 days; assay type: organism-based; details: in vivo, 240 h
[15] = system: A498; experiment: Antitumor activity against human A498 cells xenografted in CD1 nude mouse assessed as tumor volume inhibition at 55 mg/10 mL/kg, ip q4d x 8 schedule administered on day 3 of tumor implantation measured after 10 days; assay type: functional

| Compound | IC50 [1] | IC50 [2] | IC50 [3] | IC50 [4] | IC50 [5] | IC50 [6] | further results |
| --- | --- | --- | --- | --- | --- | --- | --- |
| CC[C@@]1(O)C(=O)OCc2c1cc1n(c2=O)Cc2c-1nc1ccc(O)cc1c2/C=N/OC(C)(C)C | 15 nM | 0.4 nM | – | – | – | – | – |
| N[C@@H](CCC(=O)N1CCN(c2cccc(NC3=NCCCN3)c2)CC1)C(=O)O | – | – | 800 nM | – | – | – | – |
| COC(=O)c1ccc(CNC(=O)N[C@@H](CCC(=O)N2CCN(c3cccc(N=C4NCCCN4)c3)CC2)C(=O)O)cc1 | – | – | 109 nM | – | – | – | – |
| COC(=O)c1ccc(COC(=O)N[C@@H](CCC(=O)N2CCN(c3cccc(NC4=NCCCN4)c3)CC2)C(=O)O)cc1 | – | – | 2.3 nM | – | – | – | – |
| CCc1c2c(nc3ccc(OC(=O)N4CCN(C(=O)c5ccc(COC(=O)N[C@@H](CCC(=O)N6CCN(c7cccc(NC8=NCCCN8)c7)CC6)C(=O)O)cc5)CC4)cc13)-c1cc3c(c(=O)n1C2)COC(=O)[C@]3(O)CC.Cl | 3400 nM | 33 nM | 1.3 nM | 1 nM | 89 nM | 37 nM | half-life at 5 µM [7]: 13 h; Activity [8]: 0%; Activity [9]: Non-toxic; Activity [10]: 2.5 mm2; Activity [11]: 34%; MST [12]: 63 days; Activity [13]: 3%; Activity [14]: Non-toxic; inhibition (INH) [15]: 39% |
| CC[C@@]1(O)C(=O)OCc2c1cc1n(c2=O)Cc2cc3cc(OC(=O)N4CCN(C(=O)c5ccc(COC(=O)N[C@@H](CCC(=O)N6CCN(c7cccc(NC8=NCCCN8)c7)CC6)C(=O)O)cc5)CC4)ccc3nc2-1 | > 1000 nM | 110 nM | 2.28 nM | 2.05 nM | 730 nM | 350 nM | – |
| CC[C@@]1(O)C(=O)OCc2c1cc1n(c2=O)Cc2c-1nc1ccc(OC(=O)N3CCN(C(=O)c4ccc(COC(=O)N[C@@H](CCC(=O)N5CCN(c6cccc(NC7=NCCCN7)c6)CC5)C(=O)O)cc4)CC3)cc1c2/C=N/OC(C)(C)C | > 1000 nM | 67 nM | 4.83 nM | 0.76 nM | 670 nM | 130 nM | – |
| CC[C@@]1(O)C(=O)OCc2c1cc1n(c2=O)Cc2cc3c(CN(C)C)c(OC(=O)N4CCN(C(=O)c5ccc(COC(=O)N[C@@H](CCC(=O)N6CCN(c7cccc(NC8=NCCCN8)c7)CC6)C(=O)O)cc5)CC4)ccc3nc2-1 | > 1000 nM | 570 nM | 4.97 nM | 0.73 nM | 1000 nM | 540 nM | – |
| O=C(N[C@@H](CCC(=O)N1CCN(c2cccc(N=C3NCCCN3)c2)CC1)C(=O)O)OCc1ccc(C(=O)O)cc1 | – | – | 0.082 nM | 2.2 nM | 17 nM | 6.3 nM | – |
| O=C(N[C@@H](CCC(=O)N1CCN(c2cccc(NC3=NCCCN3)c2)CC1)C(=O)O)OCc1ccccc1 | – | – | 3.26 nM | – | – | – | – |
| CCc1c2c(nc3ccc(O)cc13)-c1cc3c(c(=O)n1C2)COC(=O)[C@]3(O)CC [7-ETHYL-10-HYDROXYCAMPTOTHECIN] | 2.6 nM | 9 nM | – | – | – | – | – |
| CC[C@@]1(O)C(=O)OCc2c1cc1n(c2=O)Cc2cc3cc(O)ccc3nc2-1 [HYDROXYCAMPTOTHECIN] | 78 nM | 4 nM | – | – | – | – | – |
| CC[C@@]1(O)C(=O)OCc2c1cc1n(c2=O)Cc2cc3c(CN(C)C)c(O)ccc3nc2-1 [TOPOTECAN] | 185 nM | 6 nM | – | – | – | – | – |
